In article PMC10619976, “Structural basis of EHEP-mediated offense against phlorotannin-induced defense from brown algae to protect akuBGL activity” (eLife, 2023):

Molecular target: T1, akuBGL (110 kDa β-glucosidase) (Aplysia kurodai, UniProt A0A1V1FXL2)
T1 construct: gene ApBGL; native, purified from digestive fluid; signal peptide M1-D25 removed; 110 kDa; two GH1 domains (L26-T494, D513-P978); N-glycosylated at N113, N212, N645; precursor ends at M994
Experiment: HPLC or absorbance at […] nm of o-nitrophenol
Type: biochemical
Conditions: 2.5 mM ONPG, 49 nM akuBGL, pH 5.5, 100 mM NaCl, 10 mM CaCl2, 37 °C, 10 min

T1 sequence (A0A1V1FXL2 entry or part of it): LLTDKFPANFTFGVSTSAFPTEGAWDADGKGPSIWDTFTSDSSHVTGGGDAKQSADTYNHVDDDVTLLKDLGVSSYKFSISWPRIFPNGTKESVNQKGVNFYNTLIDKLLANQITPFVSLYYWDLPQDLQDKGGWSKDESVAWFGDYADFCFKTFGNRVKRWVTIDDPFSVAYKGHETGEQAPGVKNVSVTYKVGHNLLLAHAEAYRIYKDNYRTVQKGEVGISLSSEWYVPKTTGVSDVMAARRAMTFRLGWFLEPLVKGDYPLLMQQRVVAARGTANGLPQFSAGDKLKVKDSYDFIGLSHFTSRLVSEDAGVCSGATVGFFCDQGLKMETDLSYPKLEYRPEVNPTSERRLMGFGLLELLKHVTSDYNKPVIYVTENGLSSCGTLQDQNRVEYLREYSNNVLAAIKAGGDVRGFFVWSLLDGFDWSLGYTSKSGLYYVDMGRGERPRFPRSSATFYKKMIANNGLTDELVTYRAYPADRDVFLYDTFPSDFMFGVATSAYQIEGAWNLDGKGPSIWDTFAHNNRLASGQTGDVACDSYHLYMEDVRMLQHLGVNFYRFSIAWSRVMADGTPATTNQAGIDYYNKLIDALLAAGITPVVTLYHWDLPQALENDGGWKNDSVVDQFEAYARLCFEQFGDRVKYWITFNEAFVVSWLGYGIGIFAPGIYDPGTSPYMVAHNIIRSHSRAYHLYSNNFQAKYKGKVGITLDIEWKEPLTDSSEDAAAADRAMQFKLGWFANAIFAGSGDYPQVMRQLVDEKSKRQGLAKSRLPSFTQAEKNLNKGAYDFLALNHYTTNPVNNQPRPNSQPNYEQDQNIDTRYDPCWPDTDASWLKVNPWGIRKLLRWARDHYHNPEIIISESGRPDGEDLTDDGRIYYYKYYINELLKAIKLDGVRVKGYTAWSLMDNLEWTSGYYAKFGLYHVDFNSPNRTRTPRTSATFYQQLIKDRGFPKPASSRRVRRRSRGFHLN

Structure (SMILES): O=[N+]([O-])c1ccccc1O[C@@H]1O[C@H](CO)[C@H](O)[C@H](O)[C@H]1O [ortho-nitrophenyl-β-galactoside]
- HPLC or absorbance at 420 nm of o-nitrophenol: Ortho-nitrophenyl-β-galactoside (ONPG) was used as a substrate to measure akuBGL activity
